Measured values as given in patent publication US20260356819A1, “OXOISOINDOLINYL-SUBSTITUTED […] DERIVATIVE AND USE THEREOF” (GLUETACS THERAPEUTICS (SHANGHAI) CO., LTD., priority 2023, published 2026).

Experiments:
MV-4-11 cells = test: Inhibition of proliferation of myeloid monocytic leukemia cells MV-4-11 (cell viability assay, 96 h); assay type: cell-based, human; details: read-out: inhibitory activity (IC50) against tumor cells proliferation, MV-4-11
Method: (§1) The tumor cells used herein were cultured in a cell culture medium listed in table 2 at 37 °C in an incubator with 5% CO2. Prior to experimentation, all cell lines used were correctly identified by STR profiling, and tested negative for Mycoplasma contamination using a Mycoplasma detection kit through routine screenings.
(§2) The IC50 values of the compounds of the present disclosure (including the compounds in Table 1, and Examples 1-498) were determined using the CellTiter-Meiluncell Luminescent Cell Viability Assay Kit from Dalian Meilun Biotech Co., Ltd. The detailed procedure is as follows: Tumor cells were seeded in 96-well cell culture plates at the densities specified in Table 3. On the following day, the test compounds of the present disclosure were subjected to serial dilution. […] Subsequently, 0.5 μL of the test compound dilution was transferred into the 96-well plate containing the cells, with each well containing 100 μL of cell culture medium. […] Into the 96-well plate, the diluted test compounds and corresponding detection reagents were added, resulting in final test compound concentrations of 500 nM and 10 nM, respectively. The experimental procedure is described below using the diluted 2 μM test compound as an example.
(§3) 0.5 μL of the aforementioned diluted compound of the present disclosure (including the compounds in Table 1, and Examples 1-498) was added to the seeded cells in 100 μL of medium, yielding a final test compound concentration of 10 nM. After the cells were treated with the compounds of the present disclosure for a specified period, the cell viability assay reagent was added to the culture medium according to the kit's instructions to determine cell viability. […] All controls were treated using the same procedure as the compounds of the present disclosure. The growth inhibition curves for the compounds of the present disclosure were plotted using Prism GraphPad software, and the IC50 values were calculated therefrom.

WEE1 = biological target: T1, WEE1 (Homo sapiens, UniProt P30291+Q96SW2); test: Western blot degradation of WEE1 in hPBMCs (24 h); assay type: cell-based; details: compounds at 50 nM and 500 nM
T1 construct: The supernatant was aspirated as the extracted total cell protein; endogenous in cells; host or cells: human peripheral blood mononuclear cells (hPBMCs)
Procedure, shortened: (§4)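 Thawed human PBMCs, 1×10^6 cells/mL; cpd 50 nM or 500 nM, 24 h; RIPA lysis, BCA, SDS-PAGE, NC transfer, immunoblot. Readout: grayscale/internal control → % remaining; degradation = 1 − remaining.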

IKZF1 = biological target: T2, IKZF1 (Homo sapiens, UniProt Q13422+Q96SW2); test: Western blot degradation of IKZF1 in hPBMCs (24 h); assay type: cell-based; details: compounds at 50 nM and 500 nM
T2 construct: The supernatant was aspirated as the extracted total cell protein; endogenous in cells; host or cells: human peripheral blood mononuclear cells (hPBMCs)
Procedure, shortened: as §4

IKZF2 = biological target: T3, IKZF2 (Homo sapiens, UniProt Q96SW2+Q9UKS7); test: Western blot degradation of IKZF2 in hPBMCs (24 h); assay type: cell-based; details: compounds at 50 nM and 500 nM
T3 construct: The supernatant was aspirated as the extracted total cell protein; endogenous in cells; host or cells: human peripheral blood mononuclear cells (hPBMCs)
Procedure, shortened: as §4

IKZF3 = biological target: T4, IKZF3 (Homo sapiens, UniProt Q96SW2+Q9UKT9); test: Western blot degradation of IKZF3 in hPBMCs (24 h); assay type: cell-based; details: compounds at 50 nM and 500 nM
T4 construct: The supernatant was aspirated as the extracted total cell protein; endogenous in cells; host or cells: human peripheral blood mononuclear cells (hPBMCs)
Procedure, shortened: as §4

CK1α = biological target: T5, CK1α (Homo sapiens, UniProt P48729+Q96SW2); test: Western blot degradation of CK1α in hPBMCs (24 h); assay type: cell-based; details: compounds at 50 nM and 500 nM
T5 construct: The supernatant was aspirated as the extracted total cell protein; endogenous in cells; host or cells: human peripheral blood mononuclear cells (hPBMCs)
Procedure, shortened: as §4

GSPT1 = biological target: T6, GSPT1 (Homo sapiens, UniProt P15170+Q96SW2); test: Western blot degradation of GSPT1 in hPBMCs (24 h); assay type: cell-based; details: compounds at 50 nM and 500 nM
T6 construct: The supernatant was aspirated as the extracted total cell protein; endogenous in cells; host or cells: human peripheral blood mononuclear cells (hPBMCs)
Procedure, shortened: as §4

MM.1S cells = test: Inhibition of proliferation of multiple myeloma cells MM.1S (cell viability assay, 96 h); assay type: cell-based, human; details: read-out: inhibitory activity (IC50) against tumor cells proliferation, MM.1S
Jurkat cells = test: Inhibition of proliferation of T lymphocytic leukemia cells Jurkat (cell viability assay, 96 h); assay type: cell-based, human; details: read-out: inhibitory activity (IC50) against tumor cells proliferation, Jurkat
Method: as §1, §2, §3

T5 sequence (P48729 whole entry): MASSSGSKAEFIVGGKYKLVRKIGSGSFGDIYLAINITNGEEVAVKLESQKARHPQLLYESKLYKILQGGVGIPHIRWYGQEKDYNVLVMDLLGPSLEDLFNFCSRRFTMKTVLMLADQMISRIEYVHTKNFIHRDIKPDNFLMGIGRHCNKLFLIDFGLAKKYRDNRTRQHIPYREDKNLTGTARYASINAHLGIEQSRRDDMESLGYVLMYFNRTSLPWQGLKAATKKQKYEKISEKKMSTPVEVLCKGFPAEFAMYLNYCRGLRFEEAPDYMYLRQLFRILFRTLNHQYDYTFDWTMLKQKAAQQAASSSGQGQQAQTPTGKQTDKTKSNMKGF
T5 sequence (Q96SW2 whole entry): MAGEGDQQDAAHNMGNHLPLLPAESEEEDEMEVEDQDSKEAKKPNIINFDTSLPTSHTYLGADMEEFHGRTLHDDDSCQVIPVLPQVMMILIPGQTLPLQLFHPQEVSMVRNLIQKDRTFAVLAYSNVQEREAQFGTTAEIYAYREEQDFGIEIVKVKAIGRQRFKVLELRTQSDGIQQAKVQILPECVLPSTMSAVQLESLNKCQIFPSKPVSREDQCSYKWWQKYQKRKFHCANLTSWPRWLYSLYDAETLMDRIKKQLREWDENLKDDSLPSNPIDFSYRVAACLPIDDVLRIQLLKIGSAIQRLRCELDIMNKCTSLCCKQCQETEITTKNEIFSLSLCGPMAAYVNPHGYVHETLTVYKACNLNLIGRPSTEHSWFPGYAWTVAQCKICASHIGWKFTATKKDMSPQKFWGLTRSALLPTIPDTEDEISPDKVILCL
T5 sequence (Q16531 whole entry partner): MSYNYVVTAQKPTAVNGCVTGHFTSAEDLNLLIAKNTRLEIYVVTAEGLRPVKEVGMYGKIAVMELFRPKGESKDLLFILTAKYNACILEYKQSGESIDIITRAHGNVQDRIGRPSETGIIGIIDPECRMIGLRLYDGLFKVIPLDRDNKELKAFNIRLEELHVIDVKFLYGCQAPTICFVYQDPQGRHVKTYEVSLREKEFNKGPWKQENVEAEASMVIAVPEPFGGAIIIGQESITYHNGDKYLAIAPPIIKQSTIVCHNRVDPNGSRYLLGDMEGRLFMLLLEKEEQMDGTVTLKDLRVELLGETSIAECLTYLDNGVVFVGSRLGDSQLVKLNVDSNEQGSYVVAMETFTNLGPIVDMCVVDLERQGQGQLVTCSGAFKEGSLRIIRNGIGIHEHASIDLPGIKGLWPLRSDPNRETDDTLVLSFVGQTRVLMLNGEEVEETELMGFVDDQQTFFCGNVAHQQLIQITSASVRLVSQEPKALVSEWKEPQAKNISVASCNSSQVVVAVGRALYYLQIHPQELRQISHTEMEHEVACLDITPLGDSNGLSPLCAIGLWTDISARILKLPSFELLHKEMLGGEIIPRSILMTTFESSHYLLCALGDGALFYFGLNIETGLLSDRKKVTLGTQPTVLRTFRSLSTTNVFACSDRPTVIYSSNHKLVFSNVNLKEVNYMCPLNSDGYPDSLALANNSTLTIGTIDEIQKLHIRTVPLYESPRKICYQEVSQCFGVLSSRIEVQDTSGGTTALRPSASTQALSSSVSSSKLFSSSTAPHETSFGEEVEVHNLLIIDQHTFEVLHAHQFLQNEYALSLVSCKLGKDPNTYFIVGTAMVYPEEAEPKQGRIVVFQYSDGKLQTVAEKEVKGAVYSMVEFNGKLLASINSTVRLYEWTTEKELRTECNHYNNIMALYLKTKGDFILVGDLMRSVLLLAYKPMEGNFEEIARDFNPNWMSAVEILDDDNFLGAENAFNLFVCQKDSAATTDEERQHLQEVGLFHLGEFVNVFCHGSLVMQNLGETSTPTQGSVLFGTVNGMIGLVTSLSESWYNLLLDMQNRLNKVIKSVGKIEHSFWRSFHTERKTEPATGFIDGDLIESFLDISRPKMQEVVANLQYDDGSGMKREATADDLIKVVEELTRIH
T4 sequence (Q9UKT9 whole entry): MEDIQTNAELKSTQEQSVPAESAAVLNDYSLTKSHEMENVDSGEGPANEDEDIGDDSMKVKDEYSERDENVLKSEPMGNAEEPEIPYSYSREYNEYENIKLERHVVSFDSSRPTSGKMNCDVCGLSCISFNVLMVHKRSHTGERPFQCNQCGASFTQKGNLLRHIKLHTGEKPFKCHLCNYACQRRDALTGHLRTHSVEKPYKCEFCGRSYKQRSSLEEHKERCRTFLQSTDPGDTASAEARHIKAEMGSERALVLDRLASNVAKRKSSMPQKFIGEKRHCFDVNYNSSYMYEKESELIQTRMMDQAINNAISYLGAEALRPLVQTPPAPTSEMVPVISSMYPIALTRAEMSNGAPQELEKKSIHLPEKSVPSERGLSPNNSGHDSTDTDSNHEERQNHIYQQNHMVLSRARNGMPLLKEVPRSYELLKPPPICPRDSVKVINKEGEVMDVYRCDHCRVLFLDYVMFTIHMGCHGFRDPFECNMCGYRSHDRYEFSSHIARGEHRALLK
T4 sequence (Q96SW2 whole entry): as the sequence (Q96SW2 whole entry) above
T4 sequence (Q16531 whole entry partner): as the sequence (Q16531 whole entry partner) above
T1 sequence (P30291 whole entry): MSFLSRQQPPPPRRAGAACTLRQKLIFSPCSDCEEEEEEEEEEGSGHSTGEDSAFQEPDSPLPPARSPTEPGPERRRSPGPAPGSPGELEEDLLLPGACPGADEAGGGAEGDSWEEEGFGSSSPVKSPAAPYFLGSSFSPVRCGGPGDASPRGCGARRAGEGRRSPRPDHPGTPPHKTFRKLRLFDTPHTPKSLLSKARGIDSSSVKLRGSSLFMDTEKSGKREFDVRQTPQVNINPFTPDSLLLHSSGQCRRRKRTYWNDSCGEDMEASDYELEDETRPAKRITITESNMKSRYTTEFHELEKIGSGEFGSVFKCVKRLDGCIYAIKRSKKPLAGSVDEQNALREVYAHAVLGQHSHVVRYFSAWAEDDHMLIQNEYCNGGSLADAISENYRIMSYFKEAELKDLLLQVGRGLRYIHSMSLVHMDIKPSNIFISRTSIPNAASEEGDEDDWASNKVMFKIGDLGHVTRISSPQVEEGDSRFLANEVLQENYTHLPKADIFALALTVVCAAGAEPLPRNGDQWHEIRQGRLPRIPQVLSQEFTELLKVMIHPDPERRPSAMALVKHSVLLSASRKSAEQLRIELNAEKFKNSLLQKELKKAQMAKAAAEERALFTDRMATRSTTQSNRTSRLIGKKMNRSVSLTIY
T1 sequence (Q96SW2 whole entry): as the sequence (Q96SW2 whole entry) above
T1 sequence (Q16531 whole entry partner): as the sequence (Q16531 whole entry partner) above
T3 sequence (Q9UKS7 whole entry): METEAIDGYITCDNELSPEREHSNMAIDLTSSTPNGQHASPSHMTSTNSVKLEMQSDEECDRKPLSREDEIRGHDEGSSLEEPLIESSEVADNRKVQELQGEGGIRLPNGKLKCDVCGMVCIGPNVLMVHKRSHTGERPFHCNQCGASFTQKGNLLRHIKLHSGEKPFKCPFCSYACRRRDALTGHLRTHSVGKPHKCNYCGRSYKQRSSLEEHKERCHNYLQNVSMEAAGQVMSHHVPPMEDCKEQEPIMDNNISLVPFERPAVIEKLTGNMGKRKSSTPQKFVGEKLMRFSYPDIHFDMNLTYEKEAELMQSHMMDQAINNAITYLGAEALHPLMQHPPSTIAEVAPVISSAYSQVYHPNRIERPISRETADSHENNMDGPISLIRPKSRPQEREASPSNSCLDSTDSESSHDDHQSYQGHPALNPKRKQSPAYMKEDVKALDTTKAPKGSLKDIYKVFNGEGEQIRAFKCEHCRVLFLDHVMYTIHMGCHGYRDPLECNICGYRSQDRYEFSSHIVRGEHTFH
T3 sequence (Q96SW2 whole entry): as the sequence (Q96SW2 whole entry) above
T3 sequence (Q16531 whole entry partner): as the sequence (Q16531 whole entry partner) above
T2 sequence (Q13422 whole entry): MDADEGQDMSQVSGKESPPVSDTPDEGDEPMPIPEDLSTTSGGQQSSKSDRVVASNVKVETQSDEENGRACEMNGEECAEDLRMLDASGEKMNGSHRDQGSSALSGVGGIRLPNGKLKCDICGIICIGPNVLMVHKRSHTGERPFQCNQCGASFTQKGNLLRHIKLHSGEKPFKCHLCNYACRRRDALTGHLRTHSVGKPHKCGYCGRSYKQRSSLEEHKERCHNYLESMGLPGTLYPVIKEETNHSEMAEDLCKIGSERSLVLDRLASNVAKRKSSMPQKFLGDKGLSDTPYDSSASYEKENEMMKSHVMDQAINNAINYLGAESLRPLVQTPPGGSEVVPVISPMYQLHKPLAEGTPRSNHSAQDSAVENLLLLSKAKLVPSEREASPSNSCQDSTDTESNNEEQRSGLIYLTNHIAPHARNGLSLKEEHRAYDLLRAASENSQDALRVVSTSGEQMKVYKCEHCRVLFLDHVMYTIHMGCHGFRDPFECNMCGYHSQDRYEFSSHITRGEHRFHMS
T2 sequence (Q96SW2 whole entry): as the sequence (Q96SW2 whole entry) above
T2 sequence (Q16531 whole entry partner): as the sequence (Q16531 whole entry partner) above

Structure (SMILES) | IC50 (MV-4-11 cells) | WEE1 substrate protein remaining % (WEE1) | IKZF1 substrate protein remaining % (IKZF1) | IKZF2 substrate protein remaining % (IKZF2) | IKZF3 substrate protein remaining % (IKZF3) | CK1α substrate protein remaining % (CK1α) | GSPT1 substrate protein remaining % (GSPT1) | IC50 (MM.1S cells) | IC50 (Jurkat cells)
O=C1CCN(N2Cc3cc(CN4CCN(c5ccc(F)cc5)CC4)ccc3C2=O)C(=O)N1 [GT-06702, 1-(5-((4-(4-fluorophenyl)piperazin-1-yl)methyl)-1-oxoisoindolin-2-yl)dihydropyrimidine-2,4(1H,3H)-dione] | 500 to 1000 nM | B (80%< substrate protein remaining % ≤100%) | B (80%< substrate protein remaining % ≤100%) | B (80%< substrate protein remaining % ≤100%) | B (80%< substrate protein remaining % ≤100%) | A (0% ≤ substrate protein remaining % ≤80%) | A (0% ≤ substrate protein remaining % ≤80%) |  | 
O=C1CCN(N2Cc3cc(CN4CCN(c5ccccc5Cl)CC4)ccc3C2=O)C(=O)N1 [GT-06703, 1-(5-((4-(2-chlorophenyl)piperazin-1-yl)methyl)-1-oxoisoindolin-2-yl)dihydropyrimidine-2,4(1H,3H)-dione] | 500 to 1000 nM | B (80%< substrate protein remaining % ≤100%) | B (80%< substrate protein remaining % ≤100%) | B (80%< substrate protein remaining % ≤100%) | B (80%< substrate protein remaining % ≤100%) | A (0% ≤ substrate protein remaining % ≤80%) | A (0% ≤ substrate protein remaining % ≤80%) |  | 
Cn1cc(C2CCN(Cc3ccc4c(c3)CN(N3CCC(=O)NC3=O)C4=O)CC2)c2ccc(F)cc21 [GT-07575, 1-(5-((4-(6-fluoro-1-methyl-1H-indol-3-yl)piperidin-1-yl)methyl)-1-oxoisoindolin-2-yl)dihydropyrimidine-2,4(1H,3H)-dione] |  | A (0% ≤ substrate protein remaining % ≤80%) | A (0% ≤ substrate protein remaining % ≤80%) | A (0% ≤ substrate protein remaining % ≤80%) | A (0% ≤ substrate protein remaining % ≤80%) | A (0% ≤ substrate protein remaining % ≤80%) | A (0% ≤ substrate protein remaining % ≤80%) | 100 to 300 nM | 100 to 300 nM
O=C1CCN(N2Cc3cc(CN4CCN(c5cccc(F)c5F)CC4)ccc3C2=O)C(=O)N1 [GT-06777, 1-(5-((4-(2,3-difluorophenyl)piperazin-1-yl)methyl)-1-oxoisoindolin-2-yl)dihydropyrimidine-2,4(1H,3H)-dione] | 300 to 500 nM | A (0% ≤ substrate protein remaining % ≤80%) | B (80%< substrate protein remaining % ≤100%) | A (0% ≤ substrate protein remaining % ≤80%) | B (80%< substrate protein remaining % ≤100%) | A (0% ≤ substrate protein remaining % ≤80%) | A (0% ≤ substrate protein remaining % ≤80%) |  | 
COc1cccc(N2CCN(Cc3ccc4c(c3)CN(N3CCC(=O)NC3=O)C4=O)CC2)c1 [GT-06699, 1-(5-((4-(3-methoxyphenyl)piperazin-1-yl)methyl)-1-oxoisoindolin-2-yl)dihydropyrimidine-2,4(1H,3H)-dione] | 100 to 300 nM | B (80%< substrate protein remaining % ≤100%) | B (80%< substrate protein remaining % ≤100%) | B (80%< substrate protein remaining % ≤100%) | B (80%< substrate protein remaining % ≤100%) | B (80%< substrate protein remaining % ≤100%) | A (0% ≤ substrate protein remaining % ≤80%) |  | 
O=C1CCN(N2Cc3cc(CN4CC=C(c5ccco5)CC4)ccc3C2=O)C(=O)N1 [GT-04874, 1-(5-((4-(furan-2-yl)-3,6-dihydropyridin-1(2H)-yl)methyl)-1-oxoisoindolin-2-yl)dihydropyrimidine-2,4(1H,3H)-dione] |  | A (0% ≤ substrate protein remaining % ≤80%) | A (0% ≤ substrate protein remaining % ≤80%) | B (80%< substrate protein remaining % ≤100%) | A (0% ≤ substrate protein remaining % ≤80%) | B (80%< substrate protein remaining % ≤100%) | A (0% ≤ substrate protein remaining % ≤80%) | 100 to 300 nM | 500 to 1000 nM
O=C1CCN(N2Cc3cc(CN4CCN(c5ccc(C(F)(F)F)cc5)CC4)ccc3C2=O)C(=O)N1 [GT-06700, 1-(1-oxo-5-((4-(4-(trifluoromethyl)phenyl)piperazin-1-yl)methyl)isoindolin-2-yl)dihydropyrimidine-2,4(1H,3H)-dione] | 50 to 100 nM |  |  |  |  |  |  |  | 
O=C1CCN(N2Cc3cc(CN4CC=C(c5cccc6c(F)cccc56)CC4)ccc3C2=O)C(=O)N1 [GT-07590, 1-(5-((4-(5-fluoronaphthalen-1-yl)-3,6-dihydropyridin-1(2H)-yl)methyl)-1-oxoisoindolin-2-yl)dihydropyrimidine-2,4(1H,3H)-dione] |  | A (0% ≤ substrate protein remaining % ≤80%) | A (0% ≤ substrate protein remaining % ≤80%) | A (0% ≤ substrate protein remaining % ≤80%) | A (0% ≤ substrate protein remaining % ≤80%) | B (80%< substrate protein remaining % ≤100%) | A (0% ≤ substrate protein remaining % ≤80%) | 10 to 50 nM | 50 to 100 nM
O=C1CCN(N2Cc3cc(CN4CCN(C(c5cccc(F)c5)c5cccc(F)c5)CC4)ccc3C2=O)C(=O)N1 [GT-07293, 1-(5-((4-(bis(3-fluorophenyl)methyl)piperazin-1-yl)methyl)-1-oxoisoindolin-2-yl)dihydropyrimidine-2,4(1H,3H)-dione] |  | A (0% ≤ substrate protein remaining % ≤80%) | B (80%< substrate protein remaining % ≤100%) | A (0% ≤ substrate protein remaining % ≤80%) | A (0% ≤ substrate protein remaining % ≤80%) | B (80%< substrate protein remaining % ≤100%) | A (0% ≤ substrate protein remaining % ≤80%) | 100 to 300 nM | 100 to 300 nM
O=C1CCN(N2Cc3cc(CN4CCC(c5cccs5)CC4)ccc3C2=O)C(=O)N1 [GT-07511, 1-(1-oxo-5-((4-(thiophen-2-yl)piperidin-1-yl)methyl)isoindolin-2-yl)dihydropyrimidine-2,4(1H,3H)-dione] |  | A (0% ≤ substrate protein remaining % ≤80%) | A (0% ≤ substrate protein remaining % ≤80%) | A (0% ≤ substrate protein remaining % ≤80%) | B (80%< substrate protein remaining % ≤100%) | A (0% ≤ substrate protein remaining % ≤80%) | A (0% ≤ substrate protein remaining % ≤80%) | 500 to 1000 nM | 500 to 1000 nM
